Test results: patent US20260014285A1, “POLYPEPTIDE COMPOUND, AND COMPLEX AND USE THEREOF” (HANGZHOU HEALTHYTIDE BIOTECHNOLOGY CO., LTD., priority 2022, published 2026)
Non-standard residues stand in square brackets, D forms with d. Residues, ends and D or L forms follow the SMILES beside them. ξ: configuration not given here. *: point of attachment. DOTA = O=C(O)CN1CCN(CC(=O)O)CCN(CC(=O)*)CCN(CC(=O)O)CC1; NOTA = O=C(O)CN1CCN(CC(=O)O)CCN(CC(=O)*)CC1; PEG4 = NCCOCCOCCOCCOCCC(=O)O; ξIle = CC[C@H](C)C(N)C(=O)O; Pip = O=C(O)[C@@H]1CCCCN1; ξN = NC(=O)CC(N)C(=O)O; Aib = CC(C)(N)C(=O)O; AEA = NCCOCC(=O)O

Experiments:
integrin αvβ3 = integrin αvβ3 (Homo sapiens, UniProt P05106+P06756); assay: Target affinity test by surface plasmon resonance (SPR), integrin αvβ3; type: binding
Chain of integrin αvβ3 (P06756 31-992 limits assumed): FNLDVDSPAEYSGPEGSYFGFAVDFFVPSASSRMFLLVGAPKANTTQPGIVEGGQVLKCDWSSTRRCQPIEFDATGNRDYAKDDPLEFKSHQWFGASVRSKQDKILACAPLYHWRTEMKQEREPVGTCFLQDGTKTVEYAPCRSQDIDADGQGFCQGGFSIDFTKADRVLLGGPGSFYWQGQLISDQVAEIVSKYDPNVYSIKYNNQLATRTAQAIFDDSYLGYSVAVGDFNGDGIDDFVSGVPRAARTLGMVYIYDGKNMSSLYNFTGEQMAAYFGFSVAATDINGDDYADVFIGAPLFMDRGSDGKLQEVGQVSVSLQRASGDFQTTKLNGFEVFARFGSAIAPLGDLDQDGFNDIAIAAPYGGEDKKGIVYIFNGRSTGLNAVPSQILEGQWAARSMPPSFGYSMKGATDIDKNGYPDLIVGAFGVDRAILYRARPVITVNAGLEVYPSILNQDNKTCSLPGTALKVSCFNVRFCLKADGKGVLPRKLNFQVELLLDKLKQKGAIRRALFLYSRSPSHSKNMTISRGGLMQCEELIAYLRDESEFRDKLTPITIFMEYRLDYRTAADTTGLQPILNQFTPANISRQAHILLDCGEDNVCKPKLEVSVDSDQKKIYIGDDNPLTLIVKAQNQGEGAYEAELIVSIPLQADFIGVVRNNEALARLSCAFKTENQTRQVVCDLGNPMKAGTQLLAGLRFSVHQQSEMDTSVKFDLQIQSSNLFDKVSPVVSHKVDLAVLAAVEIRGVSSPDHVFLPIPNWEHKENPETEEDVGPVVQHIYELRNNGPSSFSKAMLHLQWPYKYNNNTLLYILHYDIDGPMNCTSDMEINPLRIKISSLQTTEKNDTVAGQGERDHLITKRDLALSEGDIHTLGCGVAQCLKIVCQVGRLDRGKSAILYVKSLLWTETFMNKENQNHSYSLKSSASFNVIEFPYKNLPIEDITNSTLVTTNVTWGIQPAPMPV
Chain of integrin αvβ3 (P05106 27-718 limits assumed): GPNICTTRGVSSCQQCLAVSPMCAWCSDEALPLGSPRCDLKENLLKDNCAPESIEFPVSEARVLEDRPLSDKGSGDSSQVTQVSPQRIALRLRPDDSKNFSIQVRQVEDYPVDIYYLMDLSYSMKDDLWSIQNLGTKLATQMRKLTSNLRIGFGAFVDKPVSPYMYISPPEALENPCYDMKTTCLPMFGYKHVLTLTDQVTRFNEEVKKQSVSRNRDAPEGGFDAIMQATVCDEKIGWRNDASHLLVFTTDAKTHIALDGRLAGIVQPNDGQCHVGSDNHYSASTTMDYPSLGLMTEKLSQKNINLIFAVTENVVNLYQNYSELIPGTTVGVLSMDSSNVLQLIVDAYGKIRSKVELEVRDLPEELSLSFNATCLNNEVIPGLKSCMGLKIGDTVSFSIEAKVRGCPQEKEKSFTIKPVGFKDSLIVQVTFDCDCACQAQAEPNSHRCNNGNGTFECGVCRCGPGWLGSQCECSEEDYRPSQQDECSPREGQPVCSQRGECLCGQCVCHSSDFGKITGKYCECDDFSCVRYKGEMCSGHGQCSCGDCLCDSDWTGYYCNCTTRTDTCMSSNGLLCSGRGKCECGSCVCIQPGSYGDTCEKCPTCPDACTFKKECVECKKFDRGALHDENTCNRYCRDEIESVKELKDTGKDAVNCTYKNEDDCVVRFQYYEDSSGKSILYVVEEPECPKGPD
Description: (§1) Surface plasmon resonance (SPR) technique was used to test the affinity of the compound in the examples to the target protein integrin α5β1. Specifically, the following operations were performed.
(§2) The affinity constants (KD) of the compounds to the target proteins integrin α5β1, αvβ3, and αvβ5 were calculated according to the formula of KD=Kd/Ka (the lower the value of KD, the higher the affinity of the compounds of the examples to the target protein integrin α5β1).

integrin α5β1 = integrin α5β1 (Homo sapiens, UniProt P05556+P08648); assay: Target affinity test by surface plasmon resonance (SPR), integrin α5β1; type: binding; conditions: for affinity constant (KD) to integrin α5β1, in words: SPR; for Kd: SPR (Biacore T200), CM5 chip, 25° C., KD=Kd/Ka
Chain of integrin α5β1 (P08648 42-995 limits assumed): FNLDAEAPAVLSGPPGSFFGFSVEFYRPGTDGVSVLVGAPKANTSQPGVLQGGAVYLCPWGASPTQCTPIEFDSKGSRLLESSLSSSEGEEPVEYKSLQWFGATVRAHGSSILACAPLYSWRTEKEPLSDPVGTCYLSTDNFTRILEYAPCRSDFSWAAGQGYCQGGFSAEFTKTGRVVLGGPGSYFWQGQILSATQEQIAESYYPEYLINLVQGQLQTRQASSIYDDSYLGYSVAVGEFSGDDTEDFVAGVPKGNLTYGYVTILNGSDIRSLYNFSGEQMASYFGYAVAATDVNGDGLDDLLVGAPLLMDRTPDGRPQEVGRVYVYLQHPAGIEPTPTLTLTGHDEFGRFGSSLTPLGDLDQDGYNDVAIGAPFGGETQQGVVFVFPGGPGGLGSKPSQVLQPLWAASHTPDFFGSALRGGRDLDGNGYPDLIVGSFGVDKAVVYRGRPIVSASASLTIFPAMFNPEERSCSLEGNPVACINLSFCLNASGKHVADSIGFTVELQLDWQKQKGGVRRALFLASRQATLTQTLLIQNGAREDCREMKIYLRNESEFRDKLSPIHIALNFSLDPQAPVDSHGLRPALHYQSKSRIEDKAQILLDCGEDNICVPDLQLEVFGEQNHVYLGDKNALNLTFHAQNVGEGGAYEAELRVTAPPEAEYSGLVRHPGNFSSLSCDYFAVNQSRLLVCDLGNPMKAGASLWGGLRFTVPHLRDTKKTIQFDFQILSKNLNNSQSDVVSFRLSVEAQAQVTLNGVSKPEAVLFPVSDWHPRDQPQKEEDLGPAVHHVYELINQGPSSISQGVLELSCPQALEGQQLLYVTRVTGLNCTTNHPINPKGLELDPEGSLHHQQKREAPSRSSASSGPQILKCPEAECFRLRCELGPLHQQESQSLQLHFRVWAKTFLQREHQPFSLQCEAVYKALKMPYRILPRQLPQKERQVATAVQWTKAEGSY
Chain of integrin α5β1 (P05556 21-728 limits assumed): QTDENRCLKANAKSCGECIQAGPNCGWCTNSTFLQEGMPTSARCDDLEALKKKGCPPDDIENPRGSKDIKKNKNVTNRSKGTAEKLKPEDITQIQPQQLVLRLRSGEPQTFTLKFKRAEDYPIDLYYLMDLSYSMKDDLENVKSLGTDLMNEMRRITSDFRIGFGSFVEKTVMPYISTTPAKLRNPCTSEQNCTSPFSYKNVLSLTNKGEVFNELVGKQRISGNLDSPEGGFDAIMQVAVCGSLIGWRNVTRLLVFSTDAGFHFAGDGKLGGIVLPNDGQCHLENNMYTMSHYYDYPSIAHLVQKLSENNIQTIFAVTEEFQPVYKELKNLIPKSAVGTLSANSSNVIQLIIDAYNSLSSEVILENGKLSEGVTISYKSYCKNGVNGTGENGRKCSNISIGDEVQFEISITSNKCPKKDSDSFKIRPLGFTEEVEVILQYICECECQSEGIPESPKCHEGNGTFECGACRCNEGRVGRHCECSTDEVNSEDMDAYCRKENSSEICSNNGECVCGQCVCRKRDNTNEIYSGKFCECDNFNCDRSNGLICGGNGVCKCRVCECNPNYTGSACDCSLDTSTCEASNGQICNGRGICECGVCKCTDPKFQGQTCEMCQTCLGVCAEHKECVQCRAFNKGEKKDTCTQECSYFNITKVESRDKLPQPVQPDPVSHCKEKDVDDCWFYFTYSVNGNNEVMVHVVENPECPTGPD
Description: as §1, §2

in vivo [1] = assay: in vivo; parameters: species or system mice; conditions: M-NSG, mouse, iv, 100 uCi, total radioactivity
Description: (§3) For example, labeling TM4 with radioactive ^68Ga: An aqueous solution of TM4 (DOTA-Asn-Asp-Val-Ile-Asn-OH) (20 μg) was added to the prepared ^68GaCl3 solution, and the pH was adjusted to 3-5 with aqueous sodium acetate and acetic acid. This system was reacted at 70-95° C. for 15 min, and then purified after the reaction was completed to obtain a labeled solution of ^68Ga-DOTA-Asn-Asp-Val-Ile-Asn-OH (^68Ga-TM4).
(§4) All compounds were labeled with ^68Ga in the same way as described above.
Approximately 100 μCi of ^68Ga injection was injected into the tail vein of M-NSG mice inoculated with H1975. […] Table 6 was obtained by image post-processing.

in vivo [2] = assay: in vivo; parameters: species or system mice; conditions: naked (nude), mouse, iv, 100 uCi, total radioactivity
Description: as §3, §4
Approximately 100 μCi of ^68Ga injection was injected into the tail vein of naked mice inoculated with SKOV3.

in vivo [3] = assay: in vivo; parameters: species or system mice; conditions: naked (nude), mouse, iv, 100 uCi, total radioactivity; remark: listed apart in the source
Description: as §3, §4
Approximately 100 μCi of ^68Ga injection was injected into the tail vein of naked mice inoculated with MC38.

SMILES	affinity constant (KD) to integrin α5β1, in words (integrin α5β1)	Kd (integrin α5β1) [nM]	tissue uptake at 1 h (in vivo [1]; % ID/g Bone) [%ID/g]	tissue uptake at 1 h (in vivo [1]; % ID/g Brain) [%ID/g]	tissue uptake at 1 h (in vivo [1]; % ID/g Heart) [%ID/g]	tissue uptake at 1 h (in vivo [1]; % ID/g Intestine) [%ID/g]	tissue uptake at 1 h (in vivo [1]; % ID/g Kidney) [%ID/g]	tissue uptake at 1 h (in vivo [1]; % ID/g Liver) [%ID/g]	tissue uptake at 1 h (in vivo [1]; % ID/g Lung) [%ID/g]	tissue uptake at 1 h (in vivo [1]; % ID/g Muscle) [%ID/g]	tissue uptake at 1 h (in vivo [1]; % ID/g Tumor) [%ID/g]	further results
CC[C@H](C)[C@H](NC(=O)[C@@H]1CCCCN1C(=O)[C@H](CC(=O)O)NC(=O)[C@H](CC(N)=O)NC(=O)CN1CCN(CC(=O)O)CCN(CC(=O)O)CCN(CC(=O)O)CC1)C(=O)NC(CC(N)=O)C(=O)O (some centres unmarked) [TM9] ({DOTA}-ND[Pip]I[ξN]-OH)	better than nM level	5.58	–	–	–	–	–	–	–	–	–	affinity constant (KD) to integrin αvβ3, in words (integrin αvβ3; SPR): nM level; Kd (integrin αvβ3; SPR (Biacore T200), CM5 chip, 25° C., KD=Kd/Ka): 1.8 nM
CC[C@H](C)[C@H](NC(=O)[C@@H](NC(=O)[C@H](CC(=O)O)NC(=O)[C@H](CC(N)=O)NC(=O)COCCNC(=O)CN1CCN(CC(=O)O)CCN(CC(=O)O)CCN(CC(=O)O)CC1)C(C)C)C(=O)N[C@@H](CC(N)=O)C(=O)O [^68Ga-TM13, metal not drawn] ({DOTA-AEA}-NDVIN-OH)	–	–	0.13	0.2	0.49	0.6	3.9	0.5	0.32	0.23	0.97	tissue uptake at 1 h (in vivo [2]; % ID/g Bladder): 15.6 %ID/g; tissue uptake at 1 h (in vivo [2]; % ID/g Bone): 0.08 %ID/g; tissue uptake at 1 h (in vivo [2]; % ID/g Brain): 0.09 %ID/g; tissue uptake at 1 h (in vivo [2]; % ID/g Heart): 0.17 %ID/g; tissue uptake at 1 h (in vivo [2]; % ID/g Intestine): 0.85 %ID/g; tissue uptake at 1 h (in vivo [2]; % ID/g Kidney): 1.4 %ID/g; tissue uptake at 1 h (in vivo [2]; % ID/g Liver): 0.3 %ID/g; tissue uptake at 1 h (in vivo [2]; % ID/g Lung): 0.12 %ID/g; tissue uptake at 1 h (in vivo [2]; % ID/g Muscle): 0.08 %ID/g; tissue uptake at 1 h (in vivo [2]; % ID/g Tumor): 0.49 %ID/g; tissue uptake at 1 h (in vivo [3]; % ID/g Bladder): 7.3 %ID/g; tissue uptake at 1 h (in vivo [3]; % ID/g Bone): 0.05 %ID/g; tissue uptake at 1 h (in vivo [3]; % ID/g Brain): 0.09 %ID/g; tissue uptake at 1 h (in vivo [3]; % ID/g Heart): 0.11 %ID/g; tissue uptake at 1 h (in vivo [3]; % ID/g Intestine): 0.2 %ID/g; tissue uptake at 1 h (in vivo [3]; % ID/g Kidney): 1.6 %ID/g; tissue uptake at 1 h (in vivo [3]; % ID/g Liver): 0.16 %ID/g; tissue uptake at 1 h (in vivo [3]; % ID/g Lung): 0.08 %ID/g; tissue uptake at 1 h (in vivo [3]; % ID/g Muscle): 0.05 %ID/g; tissue uptake at 1 h (in vivo [3]; % ID/g Tumor): 0.2 %ID/g
CC[C@H](C)[C@H](NC(=O)[C@@H](NC(=O)[C@H](CC(=O)O)NC(=O)[C@H](CC(N)=O)NC(=O)CN1CCN(CC(=O)O)CCN(CC(=O)O)CCN(CC(=O)O)CC1)C(C)C)C(=O)N[C@@H](CC(N)=O)C(=O)O [^68Ga-TM4, ^68Ga-DOTA-Asn-Asp-Val-Ile-Asn-OH, metal not drawn] ({DOTA}-NDVIN-OH)	–	–	0.3	0.5	0.96	0.56	4.8	0.79	0.47	0.36	1.4	–
CC[C@H](C)[C@H](NC(=O)[C@@H](NC(=O)[C@H](CC(=O)O)NC(=O)[C@H](CC(N)=O)NC(=O)CCOCCOCCOCCOCCNC(=O)CN1CCN(CC(=O)O)CCN(CC(=O)O)CCN(CC(=O)O)CC1)C(C)C)C(=O)N[C@@H](CC(N)=O)C(=O)O [^68Ga-TM5, metal not drawn] ({DOTA-PEG4}-NDVIN-OH)	–	–	0.22	0.25	0.45	0.57	7.4	0.5	0.24	0.21	1.1	–
CC[C@H](C)[C@H](NC(=O)[C@@H](NC(=O)[C@H](CC(=O)O)NC(=O)[C@H](CC(N)=O)NC(=O)[C@H](CC(=O)O)NC(=O)CNC(=O)[C@H](CCCNC(=N)N)NC(=O)CCOCCOCCOCCOCCNC(=O)CN1CCN(CC(=O)O)CCN(CC(=O)O)CCN(CC(=O)O)CC1)C(C)C)C(=O)N[C@@H](CC(N)=O)C(=O)O [TM7] ({DOTA-PEG4}-RGDNDVIN-OH)	–	43.9	–	–	–	–	–	–	–	–	–	–
CC[C@H](C)C(NC(=O)[C@@H](NC(=O)[C@H](CC(=O)O)NC(=O)[C@H](CC(=O)O)NC(=O)CNC(=O)[C@H](CCCNC(=N)N)NC(=O)CN1CCN(CC(=O)O)CCN(CC(=O)O)CC1)C(C)C)C(=O)N[C@@H](CC(N)=O)C(=O)N[C@@H](Cc1ccccc1)C(=O)O (some centres unmarked) [TM3] ({NOTA}-RGDDV[ξIle]NF-OH)	better than nM level	1.92	–	–	–	–	–	–	–	–	–	–
CC[C@H](C)[C@H](NC(=O)[C@@H](NC(=O)[C@H](CC(=O)O)NC(=O)[C@H](CC(N)=O)NC(=O)[C@H](CC(=O)O)NC(=O)CNC(=O)[C@H](CCCNC(=N)N)NC(=O)CCOCCOCCOCCOCCNC(=O)CN1CCN(CC(=O)O)CCN(CC(=O)O)CCN(CC(=O)O)CC1)C(C)C)C(=O)N[C@@H](CC(N)=O)C(=O)O [^68Ga-TM7, metal not drawn] ({DOTA-PEG4}-RGDNDVIN-OH)	–	–	0.24	0.24	0.5	0.45	64.5	0.53	0.3	0.28	0.75	–
CC[C@H](C)[C@H](NC(=O)[C@@H](NC(=O)[C@H](CC(=O)O)NC(=O)[C@H](CC(N)=O)NC(=O)[C@H](CC(=O)O)NC(=O)CNC(=O)[C@H](CCCNC(=N)N)NC(=O)CN1CCN(CC(=O)O)CCN(CC(=O)O)CCN(CC(=O)O)CC1)C(C)C)C(=O)N[C@@H](CC(N)=O)C(=O)O [TM6] ({DOTA}-RGDNDVIN-OH)	–	239	–	–	–	–	–	–	–	–	–	–
CC[C@H](C)[C@H](NC(=O)C(C)(C)NC(=O)[C@H](CC(=O)O)NC(=O)[C@H](CC(N)=O)NC(=O)CN1CCN(CC(=O)O)CCN(CC(=O)O)CCN(CC(=O)O)CC1)C(=O)N[C@@H](CC(N)=O)C(=O)O [^68Ga-TM11, metal not drawn] ({DOTA}-ND[Aib]IN-OH)	–	–	0.27	0.21	0.53	0.5	4	0.43	0.31	0.31	0.94	tissue uptake at 1 h (in vivo [2]; % ID/g Bladder): 4.7 %ID/g; tissue uptake at 1 h (in vivo [2]; % ID/g Bone): 0.04 %ID/g; tissue uptake at 1 h (in vivo [2]; % ID/g Brain): 0.09 %ID/g; tissue uptake at 1 h (in vivo [2]; % ID/g Heart): 0.11 %ID/g; tissue uptake at 1 h (in vivo [2]; % ID/g Intestine): 0.33 %ID/g; tissue uptake at 1 h (in vivo [2]; % ID/g Kidney): 0.52 %ID/g; tissue uptake at 1 h (in vivo [2]; % ID/g Liver): 0.15 %ID/g; tissue uptake at 1 h (in vivo [2]; % ID/g Lung): 0.08 %ID/g; tissue uptake at 1 h (in vivo [2]; % ID/g Muscle): 0.05 %ID/g; tissue uptake at 1 h (in vivo [2]; % ID/g Tumor): 0.42 %ID/g; tissue uptake at 1 h (in vivo [3]; % ID/g Bladder): 18.9 %ID/g; tissue uptake at 1 h (in vivo [3]; % ID/g Bone): 0.08 %ID/g; tissue uptake at 1 h (in vivo [3]; % ID/g Brain): 0.18 %ID/g; tissue uptake at 1 h (in vivo [3]; % ID/g Heart): 0.25 %ID/g; tissue uptake at 1 h (in vivo [3]; % ID/g Intestine): 0.59 %ID/g; tissue uptake at 1 h (in vivo [3]; % ID/g Kidney): 1.2 %ID/g; tissue uptake at 1 h (in vivo [3]; % ID/g Liver): 0.29 %ID/g; tissue uptake at 1 h (in vivo [3]; % ID/g Lung): 0.15 %ID/g; tissue uptake at 1 h (in vivo [3]; % ID/g Muscle): 0.08 %ID/g; tissue uptake at 1 h (in vivo [3]; % ID/g Tumor): 0.73 %ID/g
CC[C@H](C)[C@H](NC(=O)[C@@H](NC(=O)[C@H](CC(=O)O)NC(=O)[C@H](CC(N)=O)NC(=O)CCOCCOCCOCCOCCNC(=O)CN1CCN(CC(=O)O)CCN(CC(=O)O)CCN(CC(=O)O)CC1)C(C)C)C(=O)N[C@@H](CC(N)=O)C(=O)O [TM5] ({DOTA-PEG4}-NDVIN-OH)	better than nM level	2.77	–	–	–	–	–	–	–	–	–	–
